Test results taken from patent publication US20040229791A1, “Compositions and methods of modulating TGF-beta activity by fatty acids” (priority 2002, published 2004).

Key:
native α2M = target: T1, native α2M (Homo sapiens, UniProt P01023); experiment: Gel filtration of 3H-arachidonic acid with native α2M; format: binding; details: 100 μM 3H-arachidonic acid
T1 construct: was purified from pooled citrate-treate human plasma; from tissue; host or cells: pooled citrate-treated human plasma
T1 sequence (P01023 24-1474): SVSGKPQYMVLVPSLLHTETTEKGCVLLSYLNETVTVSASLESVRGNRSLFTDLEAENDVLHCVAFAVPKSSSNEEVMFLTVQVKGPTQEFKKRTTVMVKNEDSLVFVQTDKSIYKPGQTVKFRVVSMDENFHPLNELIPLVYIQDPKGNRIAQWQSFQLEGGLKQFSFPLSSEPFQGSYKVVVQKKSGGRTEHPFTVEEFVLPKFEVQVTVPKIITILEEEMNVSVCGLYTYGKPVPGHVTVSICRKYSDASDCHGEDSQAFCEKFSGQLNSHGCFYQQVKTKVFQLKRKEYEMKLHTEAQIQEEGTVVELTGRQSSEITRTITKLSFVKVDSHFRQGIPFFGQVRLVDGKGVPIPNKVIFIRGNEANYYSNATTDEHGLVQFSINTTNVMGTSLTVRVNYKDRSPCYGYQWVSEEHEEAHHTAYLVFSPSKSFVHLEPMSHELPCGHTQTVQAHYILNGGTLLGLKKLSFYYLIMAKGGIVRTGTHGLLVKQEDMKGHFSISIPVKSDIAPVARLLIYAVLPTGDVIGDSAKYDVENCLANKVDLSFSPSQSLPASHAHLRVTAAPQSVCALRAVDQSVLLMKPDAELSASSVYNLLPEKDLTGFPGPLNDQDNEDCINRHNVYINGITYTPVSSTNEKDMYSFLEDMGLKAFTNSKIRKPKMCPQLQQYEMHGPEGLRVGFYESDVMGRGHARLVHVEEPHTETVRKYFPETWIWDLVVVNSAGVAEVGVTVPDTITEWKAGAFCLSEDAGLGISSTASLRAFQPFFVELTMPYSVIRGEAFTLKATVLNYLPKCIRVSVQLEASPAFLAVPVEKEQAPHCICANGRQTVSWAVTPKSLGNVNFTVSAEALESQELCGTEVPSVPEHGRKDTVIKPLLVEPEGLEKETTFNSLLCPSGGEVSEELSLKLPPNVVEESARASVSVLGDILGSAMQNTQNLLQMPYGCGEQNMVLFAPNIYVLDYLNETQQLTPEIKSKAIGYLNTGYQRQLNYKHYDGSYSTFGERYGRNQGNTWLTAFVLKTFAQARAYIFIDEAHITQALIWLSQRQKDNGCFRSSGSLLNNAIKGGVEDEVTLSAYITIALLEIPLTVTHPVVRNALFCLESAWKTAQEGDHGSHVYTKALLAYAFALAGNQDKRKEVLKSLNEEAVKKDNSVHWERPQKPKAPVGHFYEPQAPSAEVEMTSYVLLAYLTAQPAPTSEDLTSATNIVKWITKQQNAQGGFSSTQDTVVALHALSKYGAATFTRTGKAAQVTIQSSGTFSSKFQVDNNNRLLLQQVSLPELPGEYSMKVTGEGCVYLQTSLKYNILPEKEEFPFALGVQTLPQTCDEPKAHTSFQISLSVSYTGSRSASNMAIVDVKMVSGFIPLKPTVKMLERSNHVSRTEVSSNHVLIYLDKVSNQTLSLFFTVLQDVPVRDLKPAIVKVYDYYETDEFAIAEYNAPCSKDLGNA
Description: The interaction of ^3H-arachidonic acid and α2M* was determined using gel filtration. ^3H-arachidonic acid was incubated with native ? 2M or ? 2M*, which was activated by methylamine. After incubation at room temperature for 30 min, the reaction mixture was subjected to gel filtration chromatography on Sephacryl® S-300 HR. The ^3H-arachidonic acid radioactivity and concentrations of. α2M* or native ? 2M in the eluents were determined by scintillation counting and 5% SDS-PAGE followed by Coomassie blue staining, respectively. […] The small peak, which appeared in the flow-through fractions, contained the ^3H-arachidonic acid- ? 2M* complex and free ? 2M*, which was identified by Coomassie blue staining (FIG. 5, inset). The subsequent large peak, which appeared in the column bed volume fractions, was identified as free ^3H-arachidonic acid.
Gel Filtration of ^3H-arachidonic acid-α2M* Complexes—The reaction mixture contained 100 μM ^3H-arachidonic acid with or without 10 μg of ? 2M*, which was activated by methylamine and plasmin as described previously (12,22), or native ? […] The column was then eluted with the same phosphate buffer and the fractional volume was ˜1 ml, 20 μl of which was counted with a scintillation counter and an another 20 μl of which was analyzed by SDS-PAGE followed by Coomassie blue staining (to locate fractions containing. α2M* or native ? 2M).

[1] = Plasma clearance of 125I-TGF-β1 with and without α2M* and arachidonic acid; format: in vivo, mice; details: control experiments, no α2M*
Description: TGF ? β1-α2M* and TGF- ? 2- ? 2M* complexes are cleared from plasma by the ? liver (30). To test the possibility that fatty acids may be able to affect the plasma clearance of TGF ? β and α2M* complexes, ^125I-TGF ? β1 or ^125I-TGF- ? 2 were prei presence or absence of 10 μM arachidonic acid at room temperature for 30 min, and then injected into mice via tail vein according to published procedures (19). At several time intervals (10 sec, 1, 2, 3, 5, 10, 15, 20, 30 and 60 min) about 50 μl of blood was collected and counted by a γ-counter. […] The t 1+α2M* or ^125I-TGF- ? 2+α2M* were approximately 4 min. These twith published values of free ^125I-TGF- ? 1,2 and ^125I-TGF- ? 1,2-α2M* complexes, respe (19). In the presence of arachidonic acid, the t1/2s of ^125I-TGF ? β1+α2M* and ^125I-TGF α2M* were decreased to approximately 1-2 min; these are essentially identical to the t1/2s of free ^125I-TGF- ? 1 and ^125I-TGF ? β2 (FIGS. 7A and B). In control experiments, arachidonic acid did no affect the plasma clearance of free ^125I-TGF ? β1 and ^125I-TGF- ? 2.
Plasma clearance of ^125I-TGF ? β in the presence and absence of ? 2M*-^125I-TGF- ? 1 nM) or ^125I-TGF- ? 2 (1 nM) was pre-incubated with ? […] The radioactivity in the blood sample obtained at 10 s was taken as 100%.

[2] = target: T2, α2M* and basic fibroblast growth factor (bFGF) (Homo sapiens, UniProt P01023); experiment: Complex formation between α2M* and basic fibroblast growth factor; format: binding
T2 sequence (P01023 24-1474): T1 sequence (P01023 24-1474)

CCCCC/C=C\C/C=C\C/C=C\C/C=C\CCCC(=O)O [arachidonic acid]
complex formation with native α2M (native α2M): no complex formation
effect on plasma clearance of free 125I-TGF-β1 [1]: did no affect
blocking of complex formation between α2M* and bFGF [2]: block complex formation
